How the values were obtained:
[1] = Catalepsy; assay type: in vivo; details: UCM532 10 mg kg-1 i.p.; UCM597 0.3 mg kg-1 i.p.; data not shown
Excerpt: (§1) We dissolved all compounds in saline/Tween 80/polyethylenglycol (90/5/5) and administered them by i.p. injection immediately before tests. We measured body temperature with a rectal probe (Type T, Copper-Costantan Thermocouple-Physitemp Instruments INC, Clifton, N.J.) connected to a digital thermometer (model BAT-12 Physitemp Instruments INC, Clifton, N.J.); and catalepsy using the procedure described in Tseng and Craft (Tseng, A. H. et al., Eur. J. Pharmacol., 430, 41-47 (2001)).

[2] = target: T1, electric eel acetylcholinesterase (Electrophorus electricus, UniProt O42275); test: biochemical
T1 sequence (O42275 whole entry): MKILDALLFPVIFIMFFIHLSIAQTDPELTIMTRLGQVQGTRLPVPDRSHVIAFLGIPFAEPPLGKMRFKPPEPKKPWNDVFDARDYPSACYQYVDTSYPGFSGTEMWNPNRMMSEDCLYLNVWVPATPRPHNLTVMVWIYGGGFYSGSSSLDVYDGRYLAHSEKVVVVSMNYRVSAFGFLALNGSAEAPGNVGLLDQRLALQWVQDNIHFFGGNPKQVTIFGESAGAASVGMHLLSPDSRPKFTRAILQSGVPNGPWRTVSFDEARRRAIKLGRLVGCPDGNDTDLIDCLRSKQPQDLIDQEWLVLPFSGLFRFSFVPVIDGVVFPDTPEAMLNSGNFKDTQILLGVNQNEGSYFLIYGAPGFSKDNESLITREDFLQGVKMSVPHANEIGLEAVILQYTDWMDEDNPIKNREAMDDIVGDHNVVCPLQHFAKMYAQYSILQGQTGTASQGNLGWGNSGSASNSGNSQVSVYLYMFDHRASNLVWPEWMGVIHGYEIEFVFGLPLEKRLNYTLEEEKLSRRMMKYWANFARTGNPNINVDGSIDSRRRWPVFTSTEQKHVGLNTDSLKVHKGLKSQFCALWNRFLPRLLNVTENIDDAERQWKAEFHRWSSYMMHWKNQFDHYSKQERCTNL
Description: (§2) We prepared cell fractions from rat brain homogenates, and assayed membrane FAAH activity and cytosol MGL activity using anandamide [ethanolamine-3H] (American Radiolabeled Chemicals, ARC (St. Louis Mo.), 60 Ci/mmol) and 2-mono-oleoyl-glycerol-[glycerol-1,2,3^−3H] (ARC, St. Louis Mo., 20 Ci/mmol), respectively, as substrates (Dinh, T. Proc. Natl. Acad. Sci. U.S.A. (2002)). We conducted [^3H]anandamide transport assays in human astrocytoma cells (Piomelli, D. et al., Proc. Natl. Acad. Sci. U.S.A., 96, 5802-5807 (1999)); CB1 and CB2 binding assays in rat cerebellar membranes and CB2-overexpressing Chinese hamster ovary cells (Receptor Biology-Perkin Elmer, Wellesley, Mass.), respectively, using [^3H]WIN-55212-2 (NEN-Dupont, Boston, Mass., 40-60 Ci/mmol) as a ligand (Devane, W. A. et al. Science, 258, 1946-1949 (1992)); cholinesterase assays with a commercial kit (Sigma, St. Louis, Mo.), using purified enzymes (electric eel acetylcholinesterase type V-S and horse serum cholinesterase; both from Sigma, St. Louis, Mo.) and following manufacturer's instructions.

[3] = Body temperature (rectal probe); assay type: in vivo; details: UCM532 10 mg kg-1 i.p.; UCM597 0.3 mg kg-1 i.p.
Excerpt: as §1

[4] = Motor activity (Opto-Varimex cage); assay type: in vivo, rat
Description: We dissolved FAAH inhibitors and rimonabant in dimethylsulfoxide (DMSO)/saline (7/3 and 9/1, respectively); we administered FAAH inhibitors by i.p. injection 30 min before tests and rimonabant 30 min before UCM532. The elevated zero maze was comprised of a black Perspex annular platform (105 cm diameter, 10 cm width) elevated to 65 cm above ground level, divided equally into four quadrants (Bickerdike, M. J. et al., Eur. J. Pharmacol., 271, 403-411 (1994); Shepherd, J. K. et al., Psychopharmacology, 116, 56-64 (1994)). […] We placed the rats in a closed quadrant and video recorded them for 5-min periods, thoroughly cleaning the maze between sessions. […] Results are expressed as percent time in open quadrant/total time (percent time open). Results were analyzed by one-way ANOVA followed by Tukey's test. We recorded motor activity of each rat in an Opto-Varimex cage (Columbus Instruments, Columbus, Ohio) linked on-line to a computer and placed in a sound-attenuated room illuminated by a 20-W white light. The amount of time spent in ambulatory activity was analyzed using an Auto-Track software (Columbus Instruments, Columbus, Ohio) as described elsewhere (Ali, M. M. et al., Neurosci. Lett., 284, 57-60 (2000); Wedzony, K. et al., Neuropsychopharmacology, 23, 547-559 (2000)). […] We analyzed data by overall one-way ANOVA followed by Tukey's test for individual between-group comparisons. […]

[5] = target: horse plasma butyryl cholinesterase (Equus caballus, UniProt P81908); test: Cholinesterase assay with commercial kit, purified enzyme
Sequence of horse plasma butyryl cholinesterase (P81908 whole entry): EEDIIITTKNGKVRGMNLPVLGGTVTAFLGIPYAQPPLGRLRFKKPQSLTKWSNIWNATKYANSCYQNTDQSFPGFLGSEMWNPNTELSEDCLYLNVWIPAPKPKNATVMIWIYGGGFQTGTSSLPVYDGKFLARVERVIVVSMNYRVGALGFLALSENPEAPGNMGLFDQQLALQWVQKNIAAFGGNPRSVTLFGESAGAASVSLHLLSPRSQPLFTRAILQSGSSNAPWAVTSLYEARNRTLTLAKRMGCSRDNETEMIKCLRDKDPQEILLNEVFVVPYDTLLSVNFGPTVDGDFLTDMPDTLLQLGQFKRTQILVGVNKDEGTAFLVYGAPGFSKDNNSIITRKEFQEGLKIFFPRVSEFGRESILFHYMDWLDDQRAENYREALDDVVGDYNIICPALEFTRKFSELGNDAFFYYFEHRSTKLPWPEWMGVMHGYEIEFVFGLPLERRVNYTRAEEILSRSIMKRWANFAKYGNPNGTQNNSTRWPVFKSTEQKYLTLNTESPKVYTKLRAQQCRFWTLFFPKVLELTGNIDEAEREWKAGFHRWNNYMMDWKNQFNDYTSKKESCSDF
Description: as §2

[6] = Mouse formalin test; assay type: in vivo; details: dose not stated, data not shown
Description: We dissolved FAAH inhibitors in polyethyleneglycol/water (1/1) and rimonabant in saline. Formalin and hot-plate assays were carried out in the mouse, as described (Beltramo, M. et al., FEBS Lett., 403, 263-267 (1997)).
The compounds exerted, however, moderate antinociceptive effects in two models of acute pain.

[7] = Isolation-induced ultrasonic vocalization emission in rat pups; assay type: in vivo; details: 5 mg kg-1
[8] = target: T2, rat brain monoglyceride lipase (MGL) (Rattus norvegicus, UniProt Q8R431); test: Cytosol MGL activity, 2-mono-oleoyl-glycerol as substrate
T2 sequence (Q8R431 1-303): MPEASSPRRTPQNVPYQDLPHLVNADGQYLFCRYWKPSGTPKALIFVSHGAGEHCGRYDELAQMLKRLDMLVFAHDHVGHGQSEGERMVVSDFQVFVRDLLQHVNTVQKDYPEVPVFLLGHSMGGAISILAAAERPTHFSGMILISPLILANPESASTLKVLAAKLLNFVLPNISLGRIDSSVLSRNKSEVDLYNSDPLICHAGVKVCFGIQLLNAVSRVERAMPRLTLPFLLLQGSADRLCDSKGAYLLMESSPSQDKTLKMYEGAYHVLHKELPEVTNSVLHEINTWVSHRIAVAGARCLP
Description: as §2

[9] = target: T3, FAAH (Rattus norvegicus, UniProt P97612); test: FAAH-catalyzed hydrolysis of [3H]anandamide by intact cortical neurons in primary cultures; assay type: cell-based; details: n=8, read-out: IC50, hydrolysis of exogenous [3H]anandamide
T3 sequence (P97612 1-579): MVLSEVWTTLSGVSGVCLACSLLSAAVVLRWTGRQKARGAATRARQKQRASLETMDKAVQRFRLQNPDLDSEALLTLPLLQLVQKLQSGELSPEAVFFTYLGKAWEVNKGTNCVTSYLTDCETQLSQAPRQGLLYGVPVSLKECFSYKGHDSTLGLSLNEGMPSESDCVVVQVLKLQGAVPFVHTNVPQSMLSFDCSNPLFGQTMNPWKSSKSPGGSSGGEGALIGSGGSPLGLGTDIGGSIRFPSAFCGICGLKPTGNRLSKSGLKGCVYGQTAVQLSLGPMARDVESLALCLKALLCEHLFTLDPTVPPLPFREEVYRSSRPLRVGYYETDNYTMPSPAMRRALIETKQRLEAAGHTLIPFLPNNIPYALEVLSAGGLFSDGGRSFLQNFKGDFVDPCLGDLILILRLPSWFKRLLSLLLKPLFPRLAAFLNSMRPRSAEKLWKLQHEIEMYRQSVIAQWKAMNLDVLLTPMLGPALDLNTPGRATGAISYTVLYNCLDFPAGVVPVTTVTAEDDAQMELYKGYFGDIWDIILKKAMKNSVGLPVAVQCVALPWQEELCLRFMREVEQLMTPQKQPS

[10] = target: T1, electric eel acetylcholinesterase
Description: as §2

## CCCCNC(=O)Oc1ccc(OCc2ccccc2)cc1 [UCM532, n-Butylcarbamic acid 4-benzyloxyphenyl ester]
[1]
  catalepsy (rigid immobility): no catalepsy
[2]
  IC50: > 30000 nM
[3]
  body temperature / hypothermia, compound alone: no
[4]; adult rats, 20 min session, ≧10 mg kg-1
  ambulation time: modest decrease
[4]; rat pups, 5 mg kg-1, data not shown
  pup movement: no effect
[5]
  effect on butyryl cholinesterase activity (in words): did not affect
[5]; Table 2
  BCh SI (maximal concentration tested/IC50 for FAAH): ≧333
  BCh: maximal concentration of FAAH inhibitor tested: >100 µM
[6]
  antinociceptive effect, formalin test, compared with UCM597: mimicked, albeit less effectively
[7]
  isolation-induced ultrasonic calls: strongly reduced
[8]
  effect on MGL activity (in words): did not affect
[8]; Table 2
  MGL SI (maximal concentration tested/IC50 for FAAH): ≧100
  MGL: maximal concentration of FAAH inhibitor tested: >30 µM
[9]
  IC50: 214 ± 79 nM
[10]
  effect on acetylcholinesterase activity (in words): did not affect
[10]; Table 2
  AChE: maximal concentration of FAAH inhibitor tested: >100 µM

— patent publication US20040127518A1, “Modulation of anxiety through blockade of anandamide hydrolysis” (priority 2002, published 2004)
